Reference: US20070059364A1, “Active substance combination comprising a compound with npy receptor affinity and a compound with 5-ht6 receptor affinity” (Laboratorios Del Dr. Esteve S.A., priority 2003, published 2007)
Where a name gives a salt, the structure may show the parent alone.

Experiments:
Neuropeptide Y2 receptor = biological target: T1, Neuropeptide Y2 receptor (Rattus norvegicus, UniProt Q9ERC0); test: Binding to Neuropeptide Y2, Method (III), [125I]-PYY3-36, rat hypoccampus membranes; settings: [125I]-PYY(3-36)
T1 construct: from tissue; host or cells: rat hippocampus membranes (male Wistar rats)
T1 sequence (Q9ERC0 1-381): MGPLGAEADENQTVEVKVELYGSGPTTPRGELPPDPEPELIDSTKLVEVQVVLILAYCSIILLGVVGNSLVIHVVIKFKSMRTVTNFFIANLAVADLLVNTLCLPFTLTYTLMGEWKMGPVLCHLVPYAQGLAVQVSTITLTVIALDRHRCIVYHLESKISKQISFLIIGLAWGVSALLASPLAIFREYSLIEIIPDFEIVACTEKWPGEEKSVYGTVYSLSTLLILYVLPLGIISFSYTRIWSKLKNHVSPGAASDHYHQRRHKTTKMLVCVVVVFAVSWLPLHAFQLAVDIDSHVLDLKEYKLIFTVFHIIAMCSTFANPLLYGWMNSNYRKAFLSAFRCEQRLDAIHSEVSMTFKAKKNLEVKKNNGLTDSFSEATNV
Description: Binding to Neuropeptide Y2
(§1) Male Wistar rats are sacrificed by decapitation, their brains are rapidly removed and the hypoccampus is dissected. Homogenization is performed in cold conditions in the buffer: 120 mM NaCl, 4.7 mM KCl, 2.2 mM CaCl2, 1.2 mM KH2PO4, 1.2 mM MgSO4, 25 mM NaHCO3, 5.5 mM glucose, pH 7.4, by means of a Ultra-Turrax homogenizer for 15 seconds at 13,500 rpm. The ratio between fresh tissue weight and buffer volume is of ten times. The membrane is centrifuged for 10 min at 48,000 g. The supernatant is discarded and the pellet is washed, resuspended and recentrifuged two more times. The final membrane resuspension is performed in the buffer: 120 mM NaCl, 4.7 mM KCl, 2.2 mM CaCl2, 1.2 mM KH2PO4, 1.2 mM MgSO4, 25 mM NaHCO3, 5.5 mM glucose, 0.1% BSA, 0.05% bacitracin, pH 7.4, at a 90 ml/g ratio of fresh issue. […] Incubation volume: 500 μl. […] The filters are cold-washed three times with three milliliters of the same buffer used in homogenization. […] Non-specific binding is determined in the presence of 1 μM of pNPY (Neuropeptide Y of porcine origin). The assays are performed in triplicate.

Neuropeptide Y5 receptor = biological target: T2, Neuropeptide Y5 receptor (Rattus norvegicus, UniProt Q63634); test: Neuropeptide Y5 receptor binding, Method (I), [125I]-PYY3-36 with BIBP 3226, rat cortex membranes; settings: [125I]-PYY(3-36), BIBP 3226 sat.
T2 construct: from tissue; host or cells: rat brain cortex membranes (male Wistar rats)
T2 sequence (Q63634 1-445): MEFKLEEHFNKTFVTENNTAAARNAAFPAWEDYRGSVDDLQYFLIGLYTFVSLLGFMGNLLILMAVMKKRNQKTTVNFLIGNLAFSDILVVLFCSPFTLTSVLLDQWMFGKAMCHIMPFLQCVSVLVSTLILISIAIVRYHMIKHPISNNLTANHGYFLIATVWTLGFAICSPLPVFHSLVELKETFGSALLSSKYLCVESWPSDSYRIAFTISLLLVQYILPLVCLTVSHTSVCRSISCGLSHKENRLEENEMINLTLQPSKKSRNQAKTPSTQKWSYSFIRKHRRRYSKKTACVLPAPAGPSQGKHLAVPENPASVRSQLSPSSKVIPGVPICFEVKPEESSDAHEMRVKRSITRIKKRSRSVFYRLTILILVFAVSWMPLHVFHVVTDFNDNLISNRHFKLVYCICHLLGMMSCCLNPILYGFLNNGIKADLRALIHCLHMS
Description: as §1, with “the cortex” for “the hypoccampus”, “of twenty” for “of ten”, “recentrifuged three” for “recentrifuged two”, “times.” for “times. The final membrane resuspension is performed in the buffer: 120 mM NaCl, 4.7 mM KCl, 2.2 mM CaCl2, 1.2 mM KH2PO4, 1.2 mM MgSO4, 25 mM NaHCO3, 5.5 mM glucose, 0.1% BSA, 0.05% bacitracin, pH 7.4, at a 90 ml/g ratio of fresh issue.”, “with two” for “with three”

rat Y5 receptor = biological target: T3, rat Y5 receptor (Rattus norvegicus, UniProt Q63634); test: Neuropeptide Y5 receptor binding, Method (II), [125I]-PYY, C6 cells transfected with rat Y5 receptor; settings: Y5 rat recombinant receptor, cell C6
T3 construct: expressed in transfected cells; host or cells: C6 cells
T3 sequence (Q63634 1-445): T2 sequence (Q63634 1-445)
Description: Neuropeptide Y5 Receptor Binding Studies:
The experimental protocol follows the method described by Y. Hu, B. T. Bloomquist et al. in Y. Hu, B. T. Bloomquist et al., The Journal of Biological Chemistry, 1996, 271, 26315-26319 with modifications. Cells C6 were transfected with the rat Y5 receptor. The cells were grown under standard culture conditions in 150 cm^2 dishes and they were harvested using a rubber scraper and 10 ml PBS. The cells from five dishes were collected and centrifuged 2.500 g for 5 min. The pellet was washed by resuspending in 3 ml buffer (Tris-HCl 10 mM, pH 7.4), homogenized using a Potter S homogenizer, 10 strokes at 600 rpm and centrifuged in cold conditions at 48.000 g for 20 min (4° C.). The resulting pellet was resuspended in cold 8 ml membrane buffer (Tris-HCl 25 mM, NaCl 120 mM, KCl 5 mM, KH2PO4 1, 2 mM, CaCl2 2, 5 mM, MgSO4 1, 2 mM, BSA 0.15 mg/ml, Bacitracine 0.5 mg/ml, pH 7, 4) and rehomogenized using the Potter S, 10 strokes at 600 rpm. The protein concentration of the used membrane in the incubation was approximately 40 μg/ml. The radioligand is [^125I]-PYY in a concentration of 100 pM. The incubation volume is 200 μl. […] Non-specific binding is determined in the presence of 1 μM of NPY. […]

| Structure (SMILES) | Ki (Neuropeptide Y2 receptor) [nM] | Ki (Neuropeptide Y5 receptor) [nM] | IC50 (rat Y5 receptor) [nM] |
| --- | --- | --- | --- |
| O=C(CN1CCC(N2C(=O)OCc3ccccc32)CC1)Nc1ccc2c(c1)CCCC2=O [Example 6a, 2-[4-(2-oxo-4H-benzo[d][1,3]oxazin-1-ylipiperidin-1-yl]-N-(5-oxo-5,6,7,8-tetrahidro-naphthalene-2-yl)-acetamide hydrochloride] | > 1000 | 18.4 | – |
| O=C(CN1CCC(N2C(=O)OCc3cc(F)ccc32)CC1)Nc1ccc2ncccc2c1 [Example 111a, 2-[4-(6-Fluoro-2-oxo-4H-benzo[d][1,3]oxazin-1-yl)-piperidin-1-yl]-N-quinolin-6-yl-acetamide] | – | – | 7.7 |
